# In patent publication US10328143B2, “Hemagglutinin-binding peptide” (priority 2014, dated 2019):
# How the values were obtained:
# [1] = tested on: highly pathogenic avian influenza virus H5N1 A/whooper swan/Hokkaido/1/08 (5×MLD50); set-up: species or system mice; settings: mouse, in vivo
# [2] = tested on: influenza virus H5N1 Vac-3; type: cell-based; settings: for anti-viral effect compared with zanamivir (Relenza): 0.01, 0.1, 1 μM
# [3] = tested on: highly pathogenic avian influenza virus H5N1: A/ws/Hokkaido/1/08 (clade 2.3), A/ws/Mongolia/3/05 (clade 2.2), A/Vietnam/UT3040/04 (clade 1); type: cell-based
# [4] = tested on: influenza virus H1N1-pdm 2619; type: cell-based
# [5] = tested on: influenza virus H2N2-Adachi strain; type: cell-based
compound,measurement,setting,value
CC(=O)N[C@H]1[C@H]([C@H](O)[C@H](O)CO)OC(C(=O)O)=C[C@@H]1N=C(N)N [zanamivir],lethality,[1],a dead individual is found
same,treatment effect,[1],no treatment effect is obtained
Cyclo(Ac-Trp-Ser-MePhe-MeGly-His-Val-His-Tyr-Ser-Val-MePhe-Asn-MeAla-Val-Cys)-amide [iHA-102],anti-viral effect compared with positive control iHA-24,[2],markedly higher than that of the peptide iHA-24
same,anti-viral effect compared with zanamivir (Relenza),[2],comparable to that of zanamivir
Cyclo(Ac-Trp-Thr-MeGly-Asp-MePhe-MePhe-Ser-MeSer-His-Tyr-Thr-Val-Pro-Arg-Cys)-amide [iHA-100],anti-viral effect compared with positive control iHA-24,[2],markedly higher than that of the peptide iHA-24
same,anti-viral effect compared with zanamivir (Relenza),[2],comparable to that of zanamivir
same,effect compared with iHA-24,[3],markedly higher than that of iHA-24
same,effect compared with zanamivir,[3],on the same level as that of zanamivir
same,anti-viral effect compared with zanamivir (Relenza),[4],comparable to that of zanamivir
same,anti-viral effect compared with zanamivir (Relenza),[5],comparable to that of zanamivir
same,number of plaques,[5],dose-dependently decreased the number of plaques
same,lethal rate,[1],a decrease in lethal rate is observed
Cyclo(Ac-Trp-Thr-MeGly-Thr-His-Val-Arg-Tyr-Thr-Val-MePhe-Asn-MeAla-Ser-Cys)-amide [iHA-103],anti-viral effect compared with positive control iHA-24,[2],markedly higher than that of the peptide iHA-24
same,anti-viral effect compared with zanamivir (Relenza),[2],comparable to that of zanamivir
